Source: patent US20240285634A1, “COMPOUND AND METHOD FOR TREATING CHEMOTHERAPY-ASSOCIATED GASTROINTESTINAL SIDE EFFECTS” (ONQUALITY PHARMACEUTICALS CHINA LTD., priority 2021, published 2024)
Where a name gives a salt, the structure may show the parent alone.

Columns and labels:
[1] = test system: Balb/c mice, constipation caused by continuous administration of a chemotherapeutic agent; experiment: Relieving effect on constipation caused by the continuous administration of a chemotherapeutic agent (Examples 385-405); type: in vivo; conditions: Fluorouracil (5-Fu) 100 mg/kg intraperitoneal injection once a day for 5 days, compound 150 mg/kg intraperitoneal injection once a day for 5 days, experimental cycle 9 days
Text: Balb/c mice were fed for 1 week, and then divided into groups. The experiment was divided into a control group, a chemotherapeutic agent group, and a group of the compound as shown in Formula I, each of which comprised 10 mice, to perform the administration experiment, for which the administration dosage, mode, time and frequency were shown in Table 6. The control group: being injected or intragastrically administered with the same solvent as that used in the group of the compound as shown in Formula I (the administration mode and time were shown in Table 6), and then being injected or intragastrically administered with the same solvent as that used in the group of the compound as shown in Formula I (the administration mode was shown in Table 6); the chemotherapeutic agent group: being injected or intragastrically administered with the same solvent as that used in the group of the compound as shown in Formula I (the administration mode and time were shown in Table 6), and then being injected or intragastrically administered with the chemotherapeutic agent (the type, administration mode, time and dosage were shown in Table 6); the group of the compound as shown in Formula I: being injected or intragastrically administered with the compound as shown in Formula I (the administration mode and time were shown in Table 6), and then being administered with the chemotherapeutic agent (the type, administration mode, time and dosage were shown in Table 6).
(§1) The feces reduction rate was calculated with reference to the method of Ji Eun Kim (Lab Anim Res. 2016 December; 32(4): 231-240.). Feces reduction rate (%)=(the control group−the chemotherapeutic agent group or the group of the compound as shown in Formula I)/the control group*100%
(§2) It is regarded as effective remission when the feces reduction rate of mice in the group of the compound as shown in Formula I is reduced compared with that in the chemotherapeutic agent group.
The feces amount of mice within 3 hours was observed and recorded every day. At the end of the experiment, the number of mice in the group of the compound as shown in Formula I whose feces reduction rate was lower than that of mice in the chemotherapeutic agent group was recorded. Table 6 lists various animal experiment combinations of chemotherapeutic agents and the compound as shown in Formula I, as well as the corresponding experimental results.

[2] = test system: Chemotherapeutic agent-caused constipation models of Balb/c mice; experiment: Relieving effect on constipation caused by a chemotherapeutic agent (Examples 202-364); type: in vivo; conditions: compound intraperitoneal injection 150 mg/kg single
Text: Construction of mouse animal models: Chemotherapeutic agent-caused constipation models of Balb/c mice were constructed according to the administration mode and frequency of the chemotherapeutic agent as shown in Table 4. […] Thus, chemotherapeutic agent-caused constipation models of mice are very good models to mimic constipation caused by the chemotherapeutic agent.
Balb/c mice were fed for 1 week, and then divided into groups. The experiment was divided into a control group, a chemotherapeutic agent group, and a group of the compound as shown in Formula I, each of which comprised 10 mice, to perform the administration experiment, for which the administration dosage, mode, time and frequency were shown in Table 4. The control group: being injected or intragastrically administered with the same solvent as that used in the group of the compound as shown in Formula I (the administration mode and time were shown in Table 4), and then being injected or intragastrically administered with the same solvent as that used in the chemotherapeutic agent group (the administration mode was shown in Table 4); the chemotherapeutic agent group: being injected or intragastrically administered with the same solvent as that used in the group of the compound as shown in Formula I (the administration mode and time was shown in Table 4), and then being injected or intragastrically administered with the chemotherapeutic agent (the type, administration mode and dosage were shown in Table 4); the group of the compound as shown in Formula I: being injected or intragastrically administered with the compound as shown in Formula I (the administration mode and time was shown in Table 4), and then being administered with the chemotherapeutic agent (the administration mode and dosage were shown in Table 4).
as §1, §2
The feces amount of mice within 3 hours was observed and recorded every day. At the end of the experiment, the number of mice in the group of the compound as shown in Formula I whose feces reduction rate was lower than that of mice in the chemotherapeutic agent group was recorded. Table 4 lists various animal experiment combinations of chemotherapeutic agents and the compound as shown in Formula I, as well as the corresponding experimental results.

With `CN1CCN(c2ccc(Nc3ncc4cc5n(c4n3)C3(CCCCC3)CNC5=O)nc2)CC1` [Compound I hydrochloride, Trilaciclib dihydrochloride] the “Relative remission rate (%)” value ([1]; Example 393, 0.5 h before the chemotherapeutic agent) was 70%, the “Relative remission rate (%)” value ([1]; Example 394, 4 h before the chemotherapeutic agent) was 50% and the “Relative remission rate (%)” value ([1]; Example 395, 12 h before the chemotherapeutic agent) was 30%. For the same compound, the “Relative remission rate (%)” value ([2]; Example 315, Fluorouracil 125 (F) and irinotecan 240 (I) mg/kg intraperitoneal injection single, 0.5 h before chemotherapeutic agent, cycle 10 days) was 20%, the “Relative remission rate (%)” value ([2]; Example 316, Fluorouracil 125 (F) and irinotecan 240 (I) mg/kg intraperitoneal injection single, 4 h before chemotherapeutic agent, cycle 10 days) was 60% and the “Relative remission rate (%)” value ([2]; Example 317, Fluorouracil 125 (F) and irinotecan 240 (I) mg/kg intraperitoneal injection single, 12 h before chemotherapeutic agent, cycle 10 days) was 40%. For the same compound, the “Relative remission rate (%)” value ([2]; Example 343, Fluorouracil 100 (F), oxaliplatin 5 (O), irinotecan 100 (I) and tetrahydrofolic acid 100 (L) mg/kg intravenous injection single, 0.5 h before chemotherapeutic agent, cycle 8 days) was 30% and the “Relative remission rate (%)” value ([2]; Example 344, Fluorouracil 100 (F), oxaliplatin 5 (O), irinotecan 100 (I) and tetrahydrofolic acid 100 (L) mg/kg intravenous injection single, 12 h before chemotherapeutic agent, cycle 8 days) was 70%.
